Converted amounts (≈) assume the structure as drawn.
Settings: buffer; pH 7.4; 200.0 µM
`COc1ccc(NC(=O)CN2CCN(c3c(C)cc(C)cc3C)CC2)cc1` gave a solubility kinetic of 3.9 µg/mL (≈ 10.6 µM).
In the case of `O=C(OCc1cncs1)c1ccccc1Cl`, the solubility kinetic is reported as over 38.1 µg/mL.
`S=C(NCc1ccco1)Nc1ccc(Cl)cn1` gave a solubility kinetic of 4.1 µg/mL (≈ 15.3 µM).
`C=CC[n+]1ccc(/C=C2\C=Cc3cc(C)ccc3N2CC)c2ccccc21.[Br-]` gave a solubility kinetic of over 53 µg/mL.
`NC(=O)C1CCN(C(=O)CCC(=O)c2cccs2)CC1` showed a solubility kinetic of over 44.2 µg/mL.
Work on `Cc1cccc(NC(=O)C2COc3ccccc3O2)c1` (stereo not given) yielded a solubility kinetic of 7.8 µg/mL (≈ 29 µM).
With `O=C1C2CCCN2C(=S)N1Cc1ccccc1` (stereo not given) the solubility kinetic was over 36.9 µg/mL.
`CCc1nonc1NC(=O)c1oc2ccc(Cl)cc2c1C` gave a solubility kinetic of under 0.2 µg/mL.
`CC(=O)Nc1cccc2c1C(=O)N(c1cccc(OC(C)=O)c1)C2=O` showed a solubility kinetic of over 50.7 µg/mL.
With `COc1ccc(N2C(S)=C(C#N)C(=O)NC23CCCCC3)cc1` the solubility kinetic was 19.3 µg/mL (≈ 58.6 µM).
With `Cc1cc(NC(=O)c2ccc(Cl)cc2Cl)no1` the solubility kinetic was 3.5 µg/mL (≈ 12.9 µM).
In the case of `CC(C)(C)n1cnc2cc(NC(=O)c3cccs3)ccc21`, the solubility kinetic is reported as over 44.9 µg/mL.
For `COc1ccccc1N1CC(C(=O)NCC2COc3ccccc3O2)CC1=O` (stereo not given), the solubility kinetic was over 57.4 µg/mL.
Work on `O=C(CN1CCCCCC1)Nc1ccc(Cl)cc1F` yielded a solubility kinetic of 28.1 µg/mL (≈ 98.7 µM).
Work on `COc1cc2ccccc2cc1C(=O)Nc1ccccc1Cl` yielded a solubility kinetic of under 0.7 µg/mL.
With `COCCNC(=O)COc1cccc2c1OC(C)(C)C2` the solubility kinetic was over 41.9 µg/mL.
In the case of `CC(NC(=O)COc1ccccc1)C(c1cccs1)N1CCCC1` (stereo not given), the solubility kinetic is reported as over 51.7 µg/mL.
In the case of `CC(=O)Oc1ccc(-c2nc3cc(Cl)ccc3c(=O)o2)cc1`, the solubility kinetic is reported as 1.7 µg/mL (≈ 5.38 µM).
`O=C(CSc1ncccn1)Nc1ccc2c(c1)CCC2` showed a solubility kinetic of 37.9 µg/mL (≈ 133 µM).
Work on `O=C(O)C1CCN(C(=O)COc2ccc(Br)cc2)CC1` yielded a solubility kinetic of over 51.3 µg/mL.
In the case of `COc1ccc(NC(=O)c2cccc(Cl)c2)c[n+]1[O-]`, the solubility kinetic is reported as over 41.8 µg/mL.
`Cc1nc(SCC(=O)NCC2CCCO2)nc(C)c1C` (stereo not given) gave a solubility kinetic of over 44.3 µg/mL.
`C#CC(C)(CC)NC(=O)c1cc2cccc(CC=C)c2oc1=O` (stereo not given) gave a solubility kinetic of 0.8 µg/mL (≈ 2.59 µM).
With `O=C(OCc1cncs1)c1ccccc1` the solubility kinetic was over 32.9 µg/mL.
For `Cc1ccc(NC(=S)N2CCCCCC2)cc1`, the solubility kinetic was over 37.3 µg/mL.
With `C=CCC(CC=C)(C(N)=O)c1ccccc1` the solubility kinetic was 31.6 µg/mL (≈ 147 µM).
Compound `CC1CCCCC12NC(=O)N(CC(=O)OCC(=O)Nc1ccc(F)cc1[N+](=O)[O-])C2=O` (stereo not given) has a solubility kinetic of 7.5 µg/mL (≈ 17.2 µM).
In the case of `Cc1ccccc1NC(=O)c1cccc(C(=O)Nc2ccccc2C)n1`, the solubility kinetic is reported as 0.3 µg/mL (≈ 0.869 µM).
`Cc1ccc(CN2CC(C(=O)Nc3cccc(C)n3)CC2=O)cc1` (stereo not given) gave a solubility kinetic of over 48.5 µg/mL.
Work on `COc1ccc(C)cc1NC(=O)C(C)N1CCOCC1.Cl` (stereo not given) yielded a solubility kinetic of over 47.2 µg/mL.
Work on `CSS(=O)(=O)c1cccc2cccnc12` yielded a solubility kinetic of over 35.9 µg/mL.
`O=C(CSc1cccc[n+]1[O-])Nc1ccccc1C(F)(F)F` showed a solubility kinetic of over 49.2 µg/mL.
In the case of `O=C(CCOc1ccccc1)Nc1ccccc1F`, the solubility kinetic is reported as 37.4 µg/mL (≈ 144 µM).
Compound `CN(CCC#N)C(=O)c1cc2c(Cl)nc3ccccc3c2s1` has a solubility kinetic of 1.1 µg/mL (≈ 3.34 µM).
Work on `O=c1[nH]c2ccsc2c(=O)n1CCO` yielded a solubility kinetic of over 31.8 µg/mL.
For `COc1ccccc1OCCCN1C(=O)C(=O)c2cccc(C)c21`, the solubility kinetic was 40.1 µg/mL (≈ 123 µM).
For `CN(CC(=O)Nc1ccc(F)cc1)C(=O)c1ccncc1`, the solubility kinetic was over 43.1 µg/mL.
With `Cc1cc(C(=O)Nc2cccc([N+](=O)[O-])c2C)cs1` the solubility kinetic was 13.6 µg/mL (≈ 49.2 µM).
In the case of `Cc1ccc(Nc2nc(-c3cccnc3)cs2)cc1Cl`, the solubility kinetic is reported as 0.3 µg/mL (≈ 0.994 µM).
In the case of `COc1ccc(CSc2nc(O)cc(=O)n2CC(C)C)cc1F`, the solubility kinetic is reported as over 50.8 µg/mL.
`COc1ccccc1OCCn1cc(C(=O)C(C)C)c2ccccc21` showed a solubility kinetic of under 0.7 µg/mL.
`COC(=O)c1scc(C)c1NC(=O)/C=C/C(=O)O` showed a solubility kinetic of 38.8 µg/mL (≈ 144 µM).
For `Nc1ccccc1SCc1ccccc1Cl`, the solubility kinetic was 3.3 µg/mL (≈ 13.2 µM).
With `O=C1/C(=C/c2ccccn2)SC(=S)N1CCc1ccccc1` the solubility kinetic was 0.4 µg/mL (≈ 1.23 µM).
Compound `CN(c1ccccc1)S(=O)(=O)c1ccc(NC(=O)C2CC2)cc1` has a solubility kinetic of 2.3 µg/mL (≈ 6.96 µM).
`CC1CC(C)CN(S(=O)(=O)CC23CCC(CC2=O)C3(C)C)C1` (stereo not given) showed a solubility kinetic of 44.8 µg/mL (≈ 137 µM).
With `O=C(c1ccc([N+](=O)[O-])cc1)N(c1ccccn1)c1ccccn1` the solubility kinetic was over 48 µg/mL.
In the case of `Cc1nn2c(-c3ccncc3)ccnc2c1Cl`, the solubility kinetic is reported as over 36.7 µg/mL.
Compound `Cc1ccc2cccc(OCc3ccc(F)cc3)c2n1` has a solubility kinetic of 6 µg/mL (≈ 22.4 µM).
Compound `O=C(c1ccc(F)cc1)N(c1ccccn1)C1CCCCC1` has a solubility kinetic of 42.6 µg/mL (≈ 143 µM).
Compound `O=C(c1ccncc1)N1CCN(S(=O)(=O)c2ccc(OC(F)(F)F)cc2)CC1` has a solubility kinetic of 36.6 µg/mL (≈ 88.1 µM).
With `Cc1onc(-c2ccccc2)c1C(=O)NC(C)CCc1ccccc1` (stereo not given) the solubility kinetic was 1.1 µg/mL (≈ 3.29 µM).
With `CCOC(=O)c1c(-c2ccccc2)oc2ccc(OCC(N)=O)cc12` the solubility kinetic was under 0.7 µg/mL.
`COc1ccc(NC(=O)Nc2ccccn2)cc1OC` showed a solubility kinetic of 16.7 µg/mL (≈ 61.1 µM).
In the case of `CCn1c(CNC(=O)C2CCCCC2)cc2ccccc21`, the solubility kinetic is reported as 0.4 µg/mL (≈ 1.41 µM).
For `CN1C(=O)/C(=C/c2ccc(O)c([N+](=O)[O-])c2)N(C)C1=S`, the solubility kinetic was 4.5 µg/mL (≈ 15.3 µM).
With `COc1cccc2c1O/C(=N\O)C(C(=O)Nc1cccc(C)c1C)C2` (stereo not given) the solubility kinetic was over 51.1 µg/mL.
Work on `Nc1ccc(N2CCOCC2)cc1C(F)(F)F` yielded a solubility kinetic of 33.9 µg/mL (≈ 138 µM).
`COC(=O)c1ccccc1NC(=O)CNC(=O)c1ccc(OC)cc1` gave a solubility kinetic of 45 µg/mL (≈ 131 µM).
`Cc1ccc(C(=O)NCC(=O)OC2CCCCC2=O)cc1C` (stereo not given) showed a solubility kinetic of over 45.5 µg/mL.

— PubChem BioAssay AID1996
